Test results published in ChEMBL document CHEMBL1148098, “Neosiphoniamolide A, a novel cyclodepsipeptide, with antifungal activity from the marine sponge Neosiphonia superstes” (1995).
Converted amounts (≈) assume the structure as drawn.

Assays:
Assay type in all cases: functional
[1] = test system: Rhizoctonia solani; test: Antifungal activity against Rhizoctonia solani assessed as inhibition of mycelium growth
[2] = test system: Phytophthora citrophthora; test: Antifungal activity against Phytophthora citrophthora assessed as inhibition of mycelium growth
[3] = test system: Phytopythium vexans; test: Antifungal activity against Pythium vexans assessed as inhibition of mycelium growth
[4] = test system: Alternaria alternata; test: Antifungal activity against Alternaria alternata assessed as inhibition of mycelium growth
[5] = test system: Parastagonospora nodorum; test: Antifungal activity against Septoria nodorum assessed as inhibition of mycelium growth
[6] = test system: Phytophthora cinnamomi; test: Antifungal activity against Phytophthora cinnamomi assessed as inhibition of mycelium growth
[7] = test system: Globisporangium rostratum; test: Antifungal activity against Pythium rostratum assessed as inhibition of mycelium growth
[8] = test system: Ustilago nuda; test: Antifungal activity against Ustilago nuda assessed as inhibition of mycelium growth
[9] = test system: Fusarium; test: Antifungal activity against Fusarium roseum assessed as inhibition of mycelium growth
[10] = test system: Pyricularia oryzae; test: Antifungal activity against Pyricularia oryzae assessed as inhibition of mycelium growth
[11] = test system: Helminthosporium; test: Antifungal activity against Helminthosporium gramineum assessed as inhibition of mycelium growth
[12] = test system: Oculimacula yallundae; test: Antifungal activity against Pseudocercosporella herpotrichoides assessed as inhibition of mycelium growth
[13] = test system: Botrytis cinerea; test: Antifungal activity against Botrytis cinerea assessed as inhibition of mycelium growth

| SMILES | IC90 [1] [µg/mL] | IC90 [2] [µg/mL] | IC90 [3] [µg/mL] | IC90 [4] [µg/mL] | IC90 [5] [µg/mL] | IC90 [6] [µg/mL] | IC90 [7] [µg/mL] | IC90 [8] [µg/mL] | IC90 [9] [µg/mL] | IC90 [10] [µg/mL] | IC90 [11] [µg/mL] | IC90 [12] [µg/mL] | IC90 [13] [µg/mL] |
| --- | --- | --- | --- | --- | --- | --- | --- | --- | --- | --- | --- | --- | --- |
| C/C1=C\[C@H](C)C[C@H](C)OC(=O)[C@H](C(C)C)NC(=O)[C@@H](Cc2ccc(O)c(I)c2)N(C)C(=O)CNC(=O)[C@@H](C)C1 [NEOSIPHONIAMOLIDE A] | > 5 | > 5 | > 5 | > 5 | > 5 | > 5 | > 5 | > 5 | > 5 | 5 (≈ 7.63 µM) | 5 (≈ 7.63 µM) | > 5 | > 5 |
| CO[C@H]1CC2=CC(=O)O[C@@H]([C@H](C)[C@@H](OC)C[C@H](OC)/C=C/[C@H](C)[C@@H](O)C[C@@H](OC)/C=C/[C@H](C)[C@@H]([C@@H](C)[C@@H](OC)[C@@H](C)CCC(=O)[C@H](C)[C@@H](C/C=C/N(C)C=O)OC)OC(=O)/C=C/C=C(/C)C1)[C@H]2O [SPHINXOLIDE B] | < 2 | < 2 | < 2 | < 2 | < 2 | < 2 | < 2 | < 2 | < 2 | < 2 | < 2 | < 2 | < 2 |
